Measured values from PMC5951806, “Rapid labelling and covalent inhibition of intracellular native proteins using ligand-directed N-acyl-N-alkyl sulfonamide” (Nature Communications, 2018).
Where “and” joins values, the source holds several entries; their conditions need not be identical. Identical values can stand only once.

Key:
Experiment in all cases: TMT LC-MSMS of 11-labelled proteins
Type in all cases: cell-based
[1] = target: Heat shock protein HSP 90-beta (HSP90AB1) (Homo sapiens, UniProt P08238)
[2] = target: Isoform 2 of Heat shock protein HSP 90-alpha (HSP90AA1) (Homo sapiens, UniProt P07900)
[3] = target: T1, prenylcysteine oxidase 1 (PCYOX1) (Homo sapiens, UniProt Q9UHG3)
T1 sequence (Q9UHG3 28-505): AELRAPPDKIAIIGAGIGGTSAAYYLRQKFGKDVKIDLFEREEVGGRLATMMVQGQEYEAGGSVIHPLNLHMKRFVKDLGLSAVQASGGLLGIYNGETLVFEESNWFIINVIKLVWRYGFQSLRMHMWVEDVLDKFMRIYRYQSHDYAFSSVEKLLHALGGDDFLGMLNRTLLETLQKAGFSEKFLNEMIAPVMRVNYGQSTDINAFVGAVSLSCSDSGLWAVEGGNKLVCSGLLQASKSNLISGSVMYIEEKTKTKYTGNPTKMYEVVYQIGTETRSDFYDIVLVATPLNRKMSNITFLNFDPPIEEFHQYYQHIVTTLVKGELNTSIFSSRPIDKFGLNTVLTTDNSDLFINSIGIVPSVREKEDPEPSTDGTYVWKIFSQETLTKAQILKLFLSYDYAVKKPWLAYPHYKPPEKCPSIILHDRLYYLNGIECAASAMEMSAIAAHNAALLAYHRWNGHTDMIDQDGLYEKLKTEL

[4] = sheet Exp1, SKBR3 cells, 11 0.5 µM 3 h vs DMSO
[5] = sheet Exp1, SKBR3 cells, 11 0.5 µM 3 h vs with PU-H71 10 µM
[6] = sheet Merged, SKBR3 cells, 11 0.5 µM 3 h vs DMSO
[7] = sheet Merged, SKBR3 cells, 11 0.5 µM 3 h vs with PU-H71 10 µM

Heat shock protein HSP 90-beta (HSP90AB1), sequence (P08238 whole entry, canonical isoform): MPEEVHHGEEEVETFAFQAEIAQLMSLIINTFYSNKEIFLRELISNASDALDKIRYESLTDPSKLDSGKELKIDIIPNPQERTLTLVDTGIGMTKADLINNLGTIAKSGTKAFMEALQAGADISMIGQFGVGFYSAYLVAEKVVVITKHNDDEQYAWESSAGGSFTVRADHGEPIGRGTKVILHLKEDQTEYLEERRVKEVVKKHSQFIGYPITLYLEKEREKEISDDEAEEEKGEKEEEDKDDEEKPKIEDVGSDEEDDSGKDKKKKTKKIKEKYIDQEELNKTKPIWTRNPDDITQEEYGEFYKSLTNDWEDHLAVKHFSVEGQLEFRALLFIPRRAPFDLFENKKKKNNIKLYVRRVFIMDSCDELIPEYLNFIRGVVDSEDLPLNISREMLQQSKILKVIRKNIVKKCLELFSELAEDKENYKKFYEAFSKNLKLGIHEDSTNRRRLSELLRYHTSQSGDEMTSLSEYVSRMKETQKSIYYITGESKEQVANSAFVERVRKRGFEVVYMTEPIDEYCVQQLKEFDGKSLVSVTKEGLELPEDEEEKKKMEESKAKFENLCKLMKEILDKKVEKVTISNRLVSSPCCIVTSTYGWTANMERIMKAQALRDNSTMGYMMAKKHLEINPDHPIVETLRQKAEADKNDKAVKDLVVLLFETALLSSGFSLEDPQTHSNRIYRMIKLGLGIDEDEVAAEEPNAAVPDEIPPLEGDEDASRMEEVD

CC(=O)Oc1ccc2c(c1)Oc1cc(OC(C)=O)ccc1C21OC(=O)c2cc(C(=O)NCCOCCOCCNC(=O)CCCC(=O)N(CC#N)S(=O)(=O)c3ccc(C(=O)NCCCn4c(Sc5cc6c(cc5I)OCO6)nc5c(N)ncnc54)cc3)ccc21 [compound 11] was tested, and the “Abundance Ratio: (11) / (11 with PU-H71)” value ([1]; Exp3, HSP90AB1) was 3.363, the “Abundance Ratio: (11) / (DMSO)” value ([1]; Exp3, HSP90AB1) was 10.531 and the “Abundances (Grouped): 11” value ([1]; Exp3, HSP90AB1) was 3418.4. The “Abundances (Grouped): 11 with PU-H71” value ([1]; Exp3, HSP90AB1) was 1016.5, the “Abundance Ratio: (11) / (DMSO)” value [1, 4] was 8.2 and the “Abundance Ratio: (11) / (11 with PU-H71)” value [1, 5] was 3.253. For the same molecule, the “Abundance Ratio: (11) / (11 with PU-H71)” value ([1]; sheet Exp2, HSP90AB1) was 3.262, the “Abundance Ratio: (11) / (DMSO)” value ([1]; sheet Exp2, HSP90AB1) was 9.509 and the “Abundances (Grouped): 11” value ([1]; sheet Exp2, HSP90AB1) was 4464.4. The “Abundances (Grouped): 11 with PU-H71” value ([1]; sheet Exp2, HSP90AB1) was 1368.7, the “Abundance Ratio: (11) / (DMSO)” value [1, 6] was 9.3 and 9.344 and the “Abundance Ratio: (11) / (11 with PU-H71)” value [1, 7] was 3.227. The “Abundance Ratio: (11) / (11 with PU-H71)” value ([2]; Exp3, HSP90AA1) was 4.154, the “Abundance Ratio: (11) / (DMSO)” value ([2]; Exp3, HSP90AA1) was 13.53 and the “Abundances (Grouped): 11” value ([2]; Exp3, HSP90AA1) was 1235.3. For the same molecule, the “Abundances (Grouped): 11 with PU-H71” value ([2]; Exp3, HSP90AA1) was 297.4, the “Abundance Ratio: (11) / (DMSO)” value [2, 4] was 12.472 and the “Abundance Ratio: (11) / (11 with PU-H71)” value [2, 5] was 3.732. For the same molecule, the “Abundance Ratio: (11) / (11 with PU-H71)” value ([2]; sheet Exp2, HSP90AA1) was 3.971, the “Abundance Ratio: (11) / (DMSO)” value ([2]; sheet Exp2, HSP90AA1) was 11.996 and the “Abundances (Grouped): 11” value ([2]; sheet Exp2, HSP90AA1) was 903.3. The “Abundances (Grouped): 11 with PU-H71” value ([2]; sheet Exp2, HSP90AA1) was 227.5, the “Abundance Ratio: (11) / (DMSO)” value [2, 6] was 13.5 and 13.53 and the “Abundance Ratio: (11) / (11 with PU-H71)” value [2, 7] was 4.154. The “Abundance Ratio: (11) / (11 with PU-H71)” value ([3]; Exp3, PCYOX1) was 0.713, the “Abundance Ratio: (11) / (DMSO)” value ([3]; Exp3, PCYOX1) was 1.251 and the “Abundances (Grouped): 11” value ([3]; Exp3, PCYOX1) was 54.9. For the same molecule, the “Abundances (Grouped): 11 with PU-H71” value ([3]; Exp3, PCYOX1, with PU-H71) was 77, the “Abundance Ratio: (11) / (DMSO)” value [3, 4] was 1.831 and the “Abundance Ratio: (11) / (11 with PU-H71)” value [3, 5] was 0.86. The “Abundance Ratio: (11) / (DMSO)” value [3, 6] was 1.513 and the “Abundance Ratio: (11) / (11 with PU-H71)” value [3, 7] was 0.783.
